Entries after “also recorded” stand apart in the source; their conditions may differ.
How the values were obtained:
TLR2/6 = biological target: T1, TLR2/6 (Mus musculus, UniProt Q9EPW9+Q9QUN7); experiment: TLR2/6-mediated TNF-α secretion (FSL-1), ELISA; format: cell-based, murine; details: RAW 264.7, 10 or 20 μM
T1 construct: endogenous in cells; host or cells: RAW 264.7
Description: (§1) Agonists specific to TLR1/TLR2 (Pam3CSK4), TLR2/TLR6 (FSL-1), TLR3 (Poly I:C), TLR7 (imiquimod), and TLR8 (TL8-506) were purchased from InvivoGen Ltd. (Hong-Kong, China), and a TLR4-specific agonist (LPS from E. coli O111:B4) was purchased from Sigma-Aldrich, Inc. For TLR9-specific stimulation, class C CpG-ODN (ODN2395, 5′-TCGTCGTTTTCGGCGCGCGCCG-3′) having full phosphorothioate backbone modification was synthesized (Bioneer, Inc., Daejeon, Korea). All TLR agonists were dissolved in deionized water and applied to a culture media for TLR activation. The cells were treated with test compounds or a control medium for 1 hour, and then stimulated with a TLR agonist for 4 hours, or 24 hours in the case of poly(I:C), and the cytokine secretion was monitored.
RAW 264.7 or differentiated THP-1 cell lines were seeded onto a 96-well culture plate at a density of 2×10^4 cells/well. The cells were treated with test compounds for 1 hour followed by the stimulation with TLR agonists for 4 hours. The supernatant was transferred to pre-coated assay plates, and the secretion levels of mouse and human TNF-α were measured by respective ELISA kits (Invitrogen, Carlsbad, CA, USA). […] Absorbance was measured by a microplate reader spectrophotometer (Molecular Devices, Inc., San Jose, CA, USA), and data was interpolated from a standard curve using SoftMax Pro 5.3 software (Molecular Devices, Inc.). […]

TLR7 = biological target: T2, TLR7 (Mus musculus, UniProt P58681); experiment: TLR7-mediated TNF-α secretion (imiquimod stimulation), ELISA; format: cell-based, murine
T2 construct: endogenous in cells; host or cells: RAW 264.7
T2 sequence (P58681 27-1050): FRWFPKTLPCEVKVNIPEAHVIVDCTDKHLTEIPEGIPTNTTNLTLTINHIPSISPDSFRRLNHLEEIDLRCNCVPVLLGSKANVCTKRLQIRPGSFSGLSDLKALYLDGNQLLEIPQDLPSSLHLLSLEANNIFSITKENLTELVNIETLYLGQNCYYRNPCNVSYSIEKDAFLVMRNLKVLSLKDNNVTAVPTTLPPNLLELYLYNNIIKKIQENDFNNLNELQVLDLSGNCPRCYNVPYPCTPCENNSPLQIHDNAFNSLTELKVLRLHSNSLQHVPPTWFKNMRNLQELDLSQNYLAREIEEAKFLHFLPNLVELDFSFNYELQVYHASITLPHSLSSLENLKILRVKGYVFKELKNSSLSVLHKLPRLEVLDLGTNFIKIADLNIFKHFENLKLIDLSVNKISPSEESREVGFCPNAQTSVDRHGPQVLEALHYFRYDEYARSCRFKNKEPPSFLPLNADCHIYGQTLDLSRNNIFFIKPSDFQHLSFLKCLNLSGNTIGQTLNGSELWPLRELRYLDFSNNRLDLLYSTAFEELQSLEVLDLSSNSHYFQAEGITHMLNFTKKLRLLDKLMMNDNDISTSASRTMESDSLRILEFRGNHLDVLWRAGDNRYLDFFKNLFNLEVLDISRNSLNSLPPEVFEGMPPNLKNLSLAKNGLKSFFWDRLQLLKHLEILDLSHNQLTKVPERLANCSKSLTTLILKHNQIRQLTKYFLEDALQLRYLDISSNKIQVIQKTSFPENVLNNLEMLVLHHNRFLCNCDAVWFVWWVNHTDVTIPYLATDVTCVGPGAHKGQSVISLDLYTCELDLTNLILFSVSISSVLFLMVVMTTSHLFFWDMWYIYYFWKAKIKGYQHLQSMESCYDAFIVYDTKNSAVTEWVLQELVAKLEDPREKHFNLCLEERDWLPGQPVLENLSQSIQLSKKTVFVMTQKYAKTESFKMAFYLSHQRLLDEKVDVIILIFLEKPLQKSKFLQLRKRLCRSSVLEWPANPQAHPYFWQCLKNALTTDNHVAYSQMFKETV
Description: as §1
RAW 264.7 or differentiated THP-1 cell lines were seeded onto a 96-well culture plate at a density of 2×10^4 cells/well. The cells were treated with test compounds for 1 hour followed by the stimulation with TLR agonists for 4 hours. The supernatant was transferred to pre-coated assay plates, and the secretion levels of mouse and human TNF-α were measured by respective ELISA kits (Invitrogen, Carlsbad, CA, USA). All experiments were performed according to the manufacturer's instructions. Absorbance was measured by a microplate reader spectrophotometer (Molecular Devices, Inc., San Jose, CA, USA), and data was interpolated from a standard curve using SoftMax Pro 5.3 software (Molecular Devices, Inc.).
In order to evaluate the antagonistic effect of each compound on TLR7/TLR9 through ELISA (enzyme-linked immunosorbent assay), RAW 264.7 cells were pretreated with the eight compounds followed by the stimulation with a TLR7-specific agonist (imiquimod, 3.61 μM) or with a TLR9-specific agonist (ODN2395, 0.5 μM). […] Since the two ligands had no agonistic effect per se (FIG. 3B), the increased cytokine production may be due to cell activation (or non-specific cellular stress) by co-treatment. Consequently, TIC10 was selected as the most suitable lead for further optimization to improve the inhibitory potency against both TLR7 and TLR9.

T1 sequence (Q9QUN7 25-784): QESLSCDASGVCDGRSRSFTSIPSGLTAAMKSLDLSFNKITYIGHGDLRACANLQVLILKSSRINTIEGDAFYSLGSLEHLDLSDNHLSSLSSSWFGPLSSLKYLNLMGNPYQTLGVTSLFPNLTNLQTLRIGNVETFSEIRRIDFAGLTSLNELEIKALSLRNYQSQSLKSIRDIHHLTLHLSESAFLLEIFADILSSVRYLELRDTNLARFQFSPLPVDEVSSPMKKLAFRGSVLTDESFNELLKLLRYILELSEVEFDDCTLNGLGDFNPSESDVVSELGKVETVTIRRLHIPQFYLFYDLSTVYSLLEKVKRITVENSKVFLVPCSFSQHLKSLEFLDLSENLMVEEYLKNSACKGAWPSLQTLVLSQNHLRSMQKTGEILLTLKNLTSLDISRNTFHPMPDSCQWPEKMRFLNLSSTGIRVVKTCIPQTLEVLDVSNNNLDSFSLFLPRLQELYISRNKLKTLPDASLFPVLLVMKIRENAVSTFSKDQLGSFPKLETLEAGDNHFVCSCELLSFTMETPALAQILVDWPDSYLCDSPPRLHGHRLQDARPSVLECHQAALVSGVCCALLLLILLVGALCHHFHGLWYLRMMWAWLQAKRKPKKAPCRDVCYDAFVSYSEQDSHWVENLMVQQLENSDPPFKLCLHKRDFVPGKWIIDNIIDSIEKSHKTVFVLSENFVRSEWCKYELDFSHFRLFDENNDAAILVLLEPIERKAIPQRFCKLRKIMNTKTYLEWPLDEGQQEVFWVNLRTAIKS
T1 sequence (Q9EPW9 28-795): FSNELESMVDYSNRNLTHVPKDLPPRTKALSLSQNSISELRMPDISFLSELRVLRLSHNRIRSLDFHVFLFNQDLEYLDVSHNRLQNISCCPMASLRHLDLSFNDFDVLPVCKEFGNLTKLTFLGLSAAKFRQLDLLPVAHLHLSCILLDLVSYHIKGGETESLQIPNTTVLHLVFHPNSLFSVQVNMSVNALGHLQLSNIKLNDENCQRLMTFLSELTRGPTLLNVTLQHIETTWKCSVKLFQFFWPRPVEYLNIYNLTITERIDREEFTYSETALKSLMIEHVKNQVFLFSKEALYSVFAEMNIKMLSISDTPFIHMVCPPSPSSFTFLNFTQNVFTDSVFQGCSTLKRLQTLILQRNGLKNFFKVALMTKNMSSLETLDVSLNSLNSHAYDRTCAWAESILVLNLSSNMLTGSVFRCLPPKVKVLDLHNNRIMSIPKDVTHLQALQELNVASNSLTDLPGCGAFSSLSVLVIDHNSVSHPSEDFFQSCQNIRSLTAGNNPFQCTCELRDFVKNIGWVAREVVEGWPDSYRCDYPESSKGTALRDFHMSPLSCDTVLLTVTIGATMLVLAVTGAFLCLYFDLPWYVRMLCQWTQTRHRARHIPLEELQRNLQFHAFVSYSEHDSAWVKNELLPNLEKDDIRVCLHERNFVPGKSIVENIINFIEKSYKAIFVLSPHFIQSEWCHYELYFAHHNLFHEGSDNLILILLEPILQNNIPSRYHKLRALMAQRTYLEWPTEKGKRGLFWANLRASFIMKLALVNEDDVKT

## COc1ccc(CNc2ncc(-c3ccc4c(c3)OCO4)n2C)c(OC)c1 [TIC10-7, 5-(2H-1,3-benzodioxol-5-yl)-N-[(2,4-dimethoxyphenyl)methyl]-1-methyl-1H-imidazol-2-amine]
TLR2/6
  effect on TLR2/6-mediated cytokine (TNF-α) production: no effect
TLR7; RAW 264.7, 10 or 20 μM, imiquimod (receptor specificity, FIG. 6)
  TLR7-mediated TNF-α secretion: moderately reduced
TLR7; RAW 264.7, 10 or 50 μM, imiquimod (FIG. 4B)
  inhibitory efficacy on TLR7-mediated TNF-α secretion: improved inhibitory efficacy compared to TIC10; also recorded: to a greater extent as compared to the other derivatives
TLR7; RAW 264.7, imiquimod (FIG. 4D)
  IC50: 6.79 µM

Reference: patent US12565475B2, “Small molecule compound inhibiting signal transmission path of TLR7 and TLR9 and use thereof” (AJOU UNIVERSITY INDUSTRY-ACADEMIC COOPERATION FOUNDATION, priority 2019, dated 2026)
